The term IC50 denotes the concentration that inhibits the measured activity by half. A high value points to weaker potency in that assay. Usually Dmax stands for the greatest extent of degradation seen.

One test deals with HPK1 p-SLP-76. Nature of the test: HPK1 p-SLP-76 inhibition assay in human PBMC (HTRF). The class given is cell-based. The note with it: 6 h compound, anti-CD3 stimulation 20 min. The method in brief:
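Human PBMC starved overnight in 0.5% FBS, treated with compound 6 h at 37° C, then stimulated with anti-CD3 (10 ug/mL final) for 20 min. Lysates analysed for phospho-SLP76 by HTRF after overnight detection-antibody incubation at 25° C.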

Test [1] has as its system IL-2 production in primary mouse CD3+ T cells. Nature of the test: Cytokine measurement: IL-2 production in mouse CD3+ T cells (ELISA). The class given is cell-based. The note with it: T-cell, plate bound anti-CD3, 40 hrs; for fold induction at 1 µM: 1 uM compound, read-out: IL-2 production Fold change (1 uM); for fold induction at 3 µM: 3 uM compound, read-out: IL-2 production Fold change (3 uM). As to the method:
Anti-CD3 Ab was used to provide signal 1 to stimulate mouse CD3+ T cells. Effect of compound stimulation on T cells was measure by IL2 ELISA. Briefly, anti-CD3 Ab was coated onto plates overnight. Isolated T cells from mouse splenocytes were incubated with plate bound CD3 in the presence and absence of compound for 40 hrs. After incubation, the supernatant was collected and IL2 level in the supernatant was determined by mouse IL2 ELISA kit.

In test [2] the target is T1, HPK1 protein (Homo sapiens, UniProt Q92918).
T1 construct: Frozen human PBMC were purchased from Shanghai OribioTech; host or cells: human PBMC
Nature of the test: HPK1 protein degradation in human PBMC (western blot). The class given is cell-based. The note with it: 18 h incubation. The gist of the method: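 Recovered frozen human PBMC in RPMI1640 exposed to a range of compound concentrations for 18 h. Lysates normalized by BCA and HPK1 level read by western blot with anti-HPK1 polyclonal antibody, β-actin as loading control.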
T1 sequence (Q92918 whole entry): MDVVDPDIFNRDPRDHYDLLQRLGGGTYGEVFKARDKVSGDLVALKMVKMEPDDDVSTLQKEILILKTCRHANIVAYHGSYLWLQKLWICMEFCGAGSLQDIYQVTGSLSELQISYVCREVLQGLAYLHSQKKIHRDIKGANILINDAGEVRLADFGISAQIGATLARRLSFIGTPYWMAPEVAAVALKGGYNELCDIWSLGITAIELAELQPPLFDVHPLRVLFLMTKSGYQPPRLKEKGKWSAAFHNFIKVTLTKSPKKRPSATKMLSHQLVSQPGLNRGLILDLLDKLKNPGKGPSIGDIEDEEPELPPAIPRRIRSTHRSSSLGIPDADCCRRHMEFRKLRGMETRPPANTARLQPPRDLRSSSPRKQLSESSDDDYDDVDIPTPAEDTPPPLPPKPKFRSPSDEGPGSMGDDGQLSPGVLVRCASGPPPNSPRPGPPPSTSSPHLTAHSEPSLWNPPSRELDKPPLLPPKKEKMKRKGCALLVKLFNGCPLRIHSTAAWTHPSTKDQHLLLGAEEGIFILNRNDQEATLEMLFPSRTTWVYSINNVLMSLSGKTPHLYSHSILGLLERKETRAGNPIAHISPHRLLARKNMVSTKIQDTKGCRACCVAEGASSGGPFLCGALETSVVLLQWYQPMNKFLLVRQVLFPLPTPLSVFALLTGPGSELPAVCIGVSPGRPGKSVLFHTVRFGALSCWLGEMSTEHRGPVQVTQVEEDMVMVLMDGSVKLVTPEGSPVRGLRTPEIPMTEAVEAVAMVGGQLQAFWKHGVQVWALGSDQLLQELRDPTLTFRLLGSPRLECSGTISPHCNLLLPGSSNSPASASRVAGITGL
On the technique in general: A western blot detects proteins with antibodies after separation by electrophoresis.

Test [3] concerns the target T2, HPK1 protein (Homo sapiens, UniProt Q92918).
T2 construct: purchased Signal Chem M23-11G-10
T2 sequence (Q92918 1-346 limits assumed): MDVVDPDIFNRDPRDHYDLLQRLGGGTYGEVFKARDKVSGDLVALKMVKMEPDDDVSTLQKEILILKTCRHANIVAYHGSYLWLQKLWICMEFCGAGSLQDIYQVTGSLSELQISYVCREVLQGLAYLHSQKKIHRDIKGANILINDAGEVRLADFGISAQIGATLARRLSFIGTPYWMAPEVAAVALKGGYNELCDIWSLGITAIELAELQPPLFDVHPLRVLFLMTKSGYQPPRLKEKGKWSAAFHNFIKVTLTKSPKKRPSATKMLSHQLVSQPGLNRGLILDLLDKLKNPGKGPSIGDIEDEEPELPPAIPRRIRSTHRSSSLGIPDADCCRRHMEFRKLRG
Nature of the test: HPK1 enzyme inhibition assay (ADP-Glo). It is filed as biochemical. The note with it: MBP substrate, ATP, ADP-Glo readout. The method in brief:
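Recombinant human HPK1 preincubated with compound 60 min at 25 °C, then reaction with MBP (0.2 ug/ul, 2× stock) and ATP (20 μM, 2× stock) 60 min at 25 °C. ADP formed detected by ADP-Glo after ATP depletion and conversion to ATP; IC50 calculated from signal.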
On the technique in general: In ADP-Glo the light output rises with the ADP produced.

Test [4] has as its target T3, HPK1 protein (Mus musculus, UniProt P70218).
T3 construct: the CD3+ T cell population was isolated from spleenocytes of mice; endogenous in cells; host or cells: primary mouse splenic CD3+ (pan) T cells
T3 sequence (P70218 1-827): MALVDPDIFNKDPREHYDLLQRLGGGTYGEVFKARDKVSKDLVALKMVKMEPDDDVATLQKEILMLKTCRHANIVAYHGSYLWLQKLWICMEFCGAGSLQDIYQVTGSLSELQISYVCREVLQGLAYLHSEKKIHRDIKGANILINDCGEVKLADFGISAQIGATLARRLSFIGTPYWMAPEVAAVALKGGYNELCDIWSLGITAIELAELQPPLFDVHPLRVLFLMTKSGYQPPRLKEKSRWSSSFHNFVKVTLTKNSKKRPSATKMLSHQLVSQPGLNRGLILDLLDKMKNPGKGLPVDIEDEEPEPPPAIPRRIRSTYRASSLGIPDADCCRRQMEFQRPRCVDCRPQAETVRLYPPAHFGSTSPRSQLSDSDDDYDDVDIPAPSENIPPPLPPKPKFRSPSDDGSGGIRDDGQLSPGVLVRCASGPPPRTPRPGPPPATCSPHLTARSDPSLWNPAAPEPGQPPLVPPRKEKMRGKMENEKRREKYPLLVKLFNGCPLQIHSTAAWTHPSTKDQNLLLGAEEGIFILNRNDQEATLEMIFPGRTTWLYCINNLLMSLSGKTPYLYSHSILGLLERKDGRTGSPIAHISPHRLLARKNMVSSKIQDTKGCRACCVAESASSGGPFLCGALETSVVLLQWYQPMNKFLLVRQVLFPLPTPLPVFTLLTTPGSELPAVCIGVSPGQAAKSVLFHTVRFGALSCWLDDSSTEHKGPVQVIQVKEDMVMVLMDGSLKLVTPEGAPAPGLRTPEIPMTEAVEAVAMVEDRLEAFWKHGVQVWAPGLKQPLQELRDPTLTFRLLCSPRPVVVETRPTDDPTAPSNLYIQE
Nature of the test: HPK1 protein degradation in mouse pan T cell (western blot). The note with it: 18 h incubation. The class given is cell-based. The gist of the method:
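CD3+ pan T cells were isolated from mouse splenocytes and incubated 18 h with a range of compound concentrations. Lysates were normalised by BCA and run on SDS-PAGE. HPK1 was detected by western blot with an anti-human HPK1 polyclonal antibody, with β-actin as loading control.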

Regarding `CCc1c[nH]c2ncc(-c3cccc(N4CCN(CCCN5CCC(c6ccc7c(N8CCC(=O)NC8=O)cccc7c6)CC5)CC4=O)c3)c(Cl)c12` [Example 58, 1-(6-(1-(3-(4-(3-(4-chloro-3-ethyl-1H-pyrrolo[2,3-b]pyridin-5-yl)phenyl)-3-oxopiperazin-1-yl)propyl)piperidin-4-yl)naphthalen-1-yl)dihydropyrimidine-2,4 (1H,3H)-dione], the IC50 with HPK1 p-SLP-76 was 300 to 3000 nM; at HPK1 protein [3], 10 to 100 nM. Further, the fold induction at 1 µM in test [1] stood at 2.5. Further, the fold induction at 3 µM in test [1] worked out at 2. The Dmax is 98% on HPK1 protein [2] and 90% at HPK1 protein [4].
In turn, `O=C1CCC(N2C(=O)c3ccc(N4CCC(COC(=O)N5CCN(c6cccc(-c7cnc8[nH]cc(C9CC9)c8c7Cl)c6)C(=O)C5)CC4)cc3C2=O)C(=O)N1` (stereo not drawn) [Example 88] yielded a half-inhibitory concentration (IC50) with HPK1 p-SLP-76 greater than 10000 nM. In test [1], the fold induction at 1 µM was 2.3 and the fold induction at 3 µM was determined as 2.4. The compound further came in with a 50% inhibitory concentration (IC50) at HPK1 protein [3] of 10 to 100 nM.
Take `O=C1CCC(N2Cc3cc(N4CCN(CCCN5CCN(c6cccc(-c7cnc8[nH]cc(C9CC9)c8c7Cl)c6)C(=O)C5)CC4)ccc3C2=O)C(=O)N1` (stereo not drawn) [Example 63, 3-(5-(4-(3-(4-(3-(4-chloro-3-cyclopropyl-1H-pyrrolo[2,3-b]pyridin-5-yl)phenyl)-3-oxopiperazin-1-yl)propyl)piperazin-1-yl)-1-oxoisoindolin-2-yl)piperidine-2,6-dione]: the IC50 in the test on HPK1 p-SLP-76 is no more than 300 nM. Moreover, in test [1], the fold induction at 1 µM stood at 2.1 and the fold induction at 3 µM came to 2. Moreover, the Dmax on HPK1 protein [2] came to 90%. At HPK1 protein [3], this compound yielded an IC50 of no more than 10 nM.
On to `O=C1CCC(N2C(=O)c3ccc(N4CCC(OCC(=O)N5CCN(c6cccc(-c7cnc8[nH]cc(CC(F)F)c8c7Cl)c6)C(=O)C5)CC4)cc3C2=O)C(=O)N1` (stereo not drawn) [Example 36], for which the IC50 is no more than 300 nM in the test on HPK1 p-SLP-76 and 10 to 100 nM against HPK1 protein [3]. In addition, the fold induction at 1 µM in test [1] came to 1.8. Also, the fold induction at 3 µM in test [1] turned out to be 3.8. In addition, the Dmax on HPK1 protein [2] was 94%; at HPK1 protein [4], 95%.
On to `O=C1CCC(N2Cc3cc(N4CCN(CCCS(=O)(=O)N5CCN(c6cccc(-c7cnc8[nH]cc(C9CC9)c8c7Cl)c6)C(=O)C5)CC4)ccc3C2=O)C(=O)N1` (stereo not drawn) [Example 103, 3-(5-(4-(3-((4-(3-(4-chloro-3-cyclopropyl-1H-pyrrolo[2,3-b]pyridin-5-yl)phenyl)-3-oxopiperazin-1-yl)sulfonyl)propyl)piperazin-1-yl)-1-oxoisoindolin-2-yl)piperidine-2,6-dione], for which the IC50 in the test on HPK1 p-SLP-76 was no more than 300 nM; at HPK1 protein [3], no more than 10 nM. In test [1], the fold induction at 1 µM worked out at 2.1. The fold induction at 3 µM in test [1] was found to be 2.8.
Take `O=C1CCC(c2ccc(C3CCN(CCCN4CCN(c5cccc(-c6cnc7[nH]cc(C8CC8)c7c6Cl)c5)C(=O)C4)CC3)cc2)C(=O)N1` (stereo not drawn) [Example 73, 3-(4-(1-(3-(4-(3-(4-chloro-3-cyclopropyl-1H-pyrrolo[2,3-b]pyridin-5-yl)phenyl)-3-oxopiperazin-1-yl)propyl)piperidin-4-yl)phenyl)piperidine-2,6-dione]: the IC50 in the test on HPK1 p-SLP-76 was no more than 300 nM; at HPK1 protein [3], no more than 10 nM. In addition, the fold induction at 1 µM in test [1] is 2. Besides, the fold induction at 3 µM in test [1] is less than 0.5. The Dmax amounted to 87% on HPK1 protein [2] and 95% at HPK1 protein [4].
`O=C1CCC(Nc2ccc(N3CCN(CCCN4CCN(c5cccc(-c6cnc7[nH]cc(C8CC8)c7c6Cl)c5)C(=O)C4)CC3)c(F)c2)C(=O)N1` (stereo not drawn) [Example 79, 3-((4-(4-(3-(4-(3-(4-chloro-3-cyclopropyl-1H-pyrrolo[2,3-b]pyridin-5-yl)phenyl)-3-oxopiperazin-1-yl)propyl)piperazin-1-yl)-3-fluorophenyl)amino) piperidine-2,6-dione]: the results for the IC50 in the test with HPK1 p-SLP-76 and at HPK1 protein [3] were no more than 300 nM and no more than 10 nM, respectively. Moreover, the fold induction at 1 µM in test [1] is 2.6. Also, the fold induction at 3 µM in test [1] is less than 0.5. Also, the Dmax on HPK1 protein [4] is 97%.
Regarding `O=C1CCC(N2C(=O)c3cc(F)c(N4CCN(CCCS(=O)(=O)N5CCN(c6cccc(-c7cnc8[nH]cc(C9CC9)c8c7Cl)c6)C(=O)C5)CC4)cc3C2=O)C(=O)N1` (stereo not drawn) [Example 101, 5-(4-(3-((4-(3-(4-chloro-3-cyclopropyl-1H-pyrrolo[2,3-b]pyridin-5-yl)phenyl)-3-oxopiperazin-1-yl)sulfonyl)propyl)piperazin-1-yl)-2-(2,6-dioxopiperidin-3-yl)-6-fluoroisoindoline-1,3-dione], the half-inhibitory concentration (IC50) with HPK1 p-SLP-76 was no more than 300 nM; on HPK1 protein [3] it was 10 to 100 nM. Also, the fold induction at 1 µM in test [1] was determined as 1.7. Also, the fold induction at 3 µM in test [1] came to 3.7. In addition, the Dmax at HPK1 protein [2] and at HPK1 protein [4] was 95% in each case.

For the origin of these results see US20240368159A1, “HPK1 DEGRADERS, COMPOSITIONS COMPRISING THE HPK1 DEGRADER, AND METHODS OF USING THE SAME” (BIOFRONT LTD, priority 2021, published 2024).
